Laboratory results as given in patent US20260069601A1, “PHARMACEUTICAL COMPOSITION FOR INHALATION FOR PREVENTING OR TREATING RESPIRATORY DISEASE” (LEXENPHARM (SUZHOU) LIMITED, priority 2022, published 2026).

Assay: Stability test of indacaterol maleate-glycopyrronium bromide compositions at different pH (Example 7)
Assay type: physicochemical
Settings: 4 weeks at 60° C.
Experimental: The soft mist solutions of indatarol indacaterol maleate and glycopyrronium bromide at different pH were prepared as follows. Six 0.02 mM citric acid solution each 500 mL were prepared. pH was adjusted to 2.5, 3.0, 3.5, 4.0, 4.5, and 5.0 with 1 M (mol/L) of sodium hydroxide solution. Indacaterol maleate and glycopyrronium bromide were added. In order to improve the dissolution of indacaterol, all the drug solutions were ultrasonicated in a water bath at 30° C. for 20 min until no visible particles were found.
The drug solutions were placed in glass bottles and stability test was performed to determine the contents of indacaterol and glycopyrronium bromide and total impurities in the samples at the initial state and after 4 weeks at 60° C.

optimal (best) pH for stability | pH at which the active ingredient is stable | SMILES
3.5 | – | CCc1cc2c(cc1CC)CC(NC[C@H](O)c1ccc(O)c3[nH]c(=O)ccc13)C2 [Indacaterol, indacaterol]
– | 2.5-3.5 | C[N+]1(C)CCC(OC(=O)C(O)(c2ccccc2)C2CCCC2)C1 (centres unmarked) [glycopyrronium bromide]
